From US20260250269A1, “APOPTOSIS INHIBITOR SALTS FOR CANCER” (priority 2022, published 2026) come the findings set out here.

Structures are written as SMILES. Where “and” joins values, the source holds several entries; their conditions need not be identical. Identical values can stand only once. Like-named read-outs stand apart in the source and are kept apart here.

Data set [1] can be described thus: Competitive equilibration experiments of Form A and Form B. The format is physicochemical. The note with it: in ethanol, acetone, ACN and pyridine/water. Here is the method: About 5 mg of Form A and about 5 mg of the mixture of Form A and Form B were added to 0.2 mL saturated solutions in following solvents: water, ethanol, acetone, acetonitrile, ethyl acetate, and pyridine/water (1/9 v/v). Obtained suspensions were stirred at 25° C. and 50° C., respectively, for a duration between 4 days to 4 weeks. Solid parts (wet cakes) were isolated by centrifugation filtration and investigated by XRPD.

For data set [2] the following is noted: for Solubility: 24 hours.
Data set [3] is described as follows: Solid form conversion on drying, heating or storage (XRPD). The format is physicochemical.

With `COCCn1c2c([n+](Cc3cnccn3)c1C)C(=O)c1ccccc1C2=O.COCCn1c2c([n+](Cc3cnccn3)c1C)C(=O)c1ccccc1C2=O.O=C([O-])c1cc2ccccc2c(Cc2c(O)c(C(=O)[O-])cc3ccccc23)c1O` [Form A], the “Solid form conversion in competitive experiments” value in data set [1] is listed as “converted to Form B”. In data set [2], the “Form change by XRPD after solubility test” value is “no form change”. For the same compound, the “Water solubility (in words)” value in data set [2] is “extremely low”. The “XRPD of residual solids” value in data set [2] (after solubility test in mouse plasma), in data set [2] (after solubility test in pH 7.4 PBS buffer) and in data set [2] (after solubility test in water) was “Form A” in each case. In addition, the Solubility (commonly how much of the substance goes into solution per volume) was 436 µg/mL and 403 µg/mL in data set [2] (mouse plasma, 37° C.); 84 µg/mL and 86 µg/mL in data set [2] (pH 7.4, PBS buffer, 37° C.); 12 µg/mL and 13 µg/mL in data set [2] (water, 37° C.). Besides, the “Solubility (in words)” value in data set [2] (water, PBS buffer, mouse plasma, 37° C.) is “comparable low solubility”.

Turning to `CCO.COCCn1c2c([n+](Cc3cnccn3)c1C)C(=O)c1ccccc1C2=O.COCCn1c2c([n+](Cc3cnccn3)c1C)C(=O)c1ccccc1C2=O.O=C([O-])c1cc2ccccc2c(Cc2c(O)c(C(=O)[O-])cc3ccccc23)c1O` [Form C], the Solid form conversion entry in data set [3] (exposure to ambient condition about 2 hours and drying at 25° C. under vacuum about 2 hours) is “converted to a mixture of Form A and Form B”.

With `CC(=O)N(C)C.COCCn1c2c([n+](Cc3cnccn3)c1C)C(=O)c1ccccc1C2=O.COCCn1c2c([n+](Cc3cnccn3)c1C)C(=O)c1ccccc1C2=O.O=C([O-])c1cc2ccccc2c(Cc2c(O)c(C(=O)[O-])cc3ccccc23)c1O` [Form G], the “Solid form obtained on storage” value in data set [3] (storing at 25° C. for about 1 day) is reported as “Form H”.

Regarding `CC(=O)N(C)C.COCCn1c2c([n+](Cc3cnccn3)c1C)C(=O)c1ccccc1C2=O.COCCn1c2c([n+](Cc3cnccn3)c1C)C(=O)c1ccccc1C2=O.O=C([O-])c1cc2ccccc2c(Cc2c(O)c(C(=O)[O-])cc3ccccc23)c1O` [Form H], the Solid form conversion result in data set [3] (after heating to 170° C.) is “converted to a mixture of Form A and Form B”.
